{"source": "patent US20040067998A1", "about": "“Antifungal and/or antiparasitic pharmaceutical composition and novel indole derivatives as active principle of such a composition” (priority 2003, published 2004)", "assay_type_in_all_cases": "cell-based", "key": {"[1]": {"test_system": "promastigote stage of Leishmania mexicana", "test": "Antiparasitic activity on the promastigote form of Leishmania (MTT)", "conditions": "for IC50: read-out: CI50 Leishmania mexicana Promastigotes"}, "[2]": {"test_system": "Aspergillus fumigatus (strain n°AF 980003)", "test": "Antifungal activity on a clinical strain of Aspergillus fumigatus (Alamar Blue microplate test)", "conditions": "for CMI or CI80 Aspergillus fumigatus (AF980003) / MIC: strain AF980003; for MIC: read-out: CMI or CI80 Aspergillus fumigatus (AF980003); for activity against Aspergillus fumigatus (in words): summary of Tables 27 to 40"}, "[3]": {"test_system": "Candida albicans (strain n° CA980001)", "test": "Antifungal activity on a clinical strain of Candida albicans (MTT colorimetric microplate test)", "conditions": "for CMI or CI80 Candida albicans (CA980001) / MIC: strain CA980001; for activity of inhibition of Candida albicans (in words): summary of Tables 27 to 40; for MIC: read-out: CMI or CI80 Candida albicans (CA980001)"}}, "note": "Where “and” joins values, the source holds several entries; their conditions need not be identical. Identical values can stand only once. Like-named read-outs stand apart in the source and are kept apart here.", "data": [{"molecule": "CCn1c(C)c(C(c2ccc(F)cc2)n2ccnc2)c2ccccc21", "note": "(stereo not shown) [compound 43]", "values": [{"measurement": "CI50 Leishmania mexicana Promastigotes", "setting": "[1]; promastigotes", "result": "1.88 ± 0.1", "unit": "µg/mL"}, {"measurement": "IC50", "setting": "[1]; promastigotes", "result": "5.9 ± 0.14", "unit": "µM"}, {"measurement": "CMI or CI80 Aspergillus fumigatus (AF980003)", "setting": "[2]", "result": "53 ± 3 μM and 17 ± 1 μg/mL"}, {"measurement": "CMI or CI80 Candida albicans (CA980001)", "setting": "[3]", "result": "6 ± 1 μM and 2.0 ± 1 μg/mL"}, {"measurement": "activity of inhibition of Candida albicans (in words)", "setting": "[3]", "result": "significant activity"}]}, {"molecule": "CCCCC(c1cn(Cc2ccc(Cl)cc2)c2ccccc12)n1ccnc1.O=C(O)/C=C/C(=O)O", "note": "(stereo not shown) [66f]", "values": [{"measurement": "CI50 Leishmania mexicana Promastigotes", "setting": "[1]; promastigotes", "result": "2.6 ± 0.03", "unit": "µg/mL"}, {"measurement": "IC50", "setting": "[1]; promastigotes", "result": "5.4 ± 0.06", "unit": "µM"}, {"measurement": "MIC", "setting": "[2]", "result": ">100", "unit": "µM"}, {"measurement": "CMI or CI80 Candida albicans (CA980001)", "setting": "[3]", "result": "7 ± 0.1 μM and 3.46 μg/mL"}, {"measurement": "activity of inhibition of Candida albicans (in words)", "setting": "[3]", "result": "significant activity"}]}, {"molecule": "Clc1ccc(C(Cn2ccc3ccccc32)n2ccnc2)cc1", "note": "(stereo not shown) [compound 85]", "values": [{"measurement": "IC50", "setting": "[1]", "result": "> 100", "unit": "µM"}, {"measurement": "CMI or CI80 Aspergillus fumigatus (AF980003)", "setting": "[2]", "result": "88 ± 5 μM and 28 ± 2 μg/mL"}, {"measurement": "MIC", "setting": "[3]", "result": ">100", "unit": "µM"}]}, {"molecule": "CCn1c(C(c2ccc(F)cc2)n2ccnc2)c(C)c2ccccc21.O=[N+]([O-])O", "note": "(stereo not shown) [31n]", "values": [{"measurement": "activity against Leishmania mexicana (in words)", "setting": "[1]", "result": "most active"}, {"measurement": "IC50", "setting": "[1]; promastigotes", "result": "< 0.1", "unit": "µM"}, {"measurement": "CMI or CI80 Aspergillus fumigatus (AF980003)", "setting": "[2]", "result": "16 ± 3 μM and 6 ± 1 μg/mL"}, {"measurement": "activity against Aspergillus fumigatus (in words)", "setting": "[2]", "result": "most active"}, {"measurement": "CMI or CI80 Candida albicans (CA980001)", "setting": "[3]", "result": "7 ± 0.3 μM and 2.77 ± 0.3 μg/mL"}, {"measurement": "activity of inhibition of Candida albicans (in words)", "setting": "[3]", "result": "significant activity"}]}, {"molecule": "Clc1ccc(Cn2cc(CCn3ccnc3)c3ccccc32)cc1", "note": "[compound 59]", "values": [{"measurement": "CI50 Leishmania mexicana Promastigotes", "setting": "[1]", "result": 15.6, "unit": "µg/mL"}, {"measurement": "IC50", "setting": "[1]", "result": 87, "unit": "µM"}, {"measurement": "MIC", "setting": "[2]", "result": ">100", "unit": "µM"}, {"measurement": "MIC", "setting": "[3]", "result": ">100", "unit": "µM"}]}, {"molecule": "CCCC(c1cn(Cc2ccc(Cl)cc2)c2ccccc12)n1ccnc1.O=C(O)/C=C/C(=O)O", "note": "(stereo not shown) [65f]", "values": [{"measurement": "CI50 Leishmania mexicana Promastigotes", "setting": "[1]", "result": "37.7 ± 4.5", "unit": "µg/mL"}, {"measurement": "IC50", "setting": "[1]", "result": "78.7 ± 9.5", "unit": "µM"}, {"measurement": "MIC", "setting": "[2]", "result": ">100", "unit": "µM"}, {"measurement": "MIC", "setting": "[3]", "result": ">100", "unit": "µM"}]}, {"molecule": "Fc1ccc(C(C(n2ccc3ccccc32)n2nnc3ccccc32)n2ccnc2)cc1", "note": "(stereo not shown) [Cpsé 83, 1-[2-(4-Fluorophenyl)-2-(1H-imidazol-1-yl)-1-(benzotriazol-1-yl)ethyl]-1H-indole]", "values": [{"measurement": "IC50", "setting": "[1]; Leishmania mexicana", "result": "14 µg/mL and 35 µM"}, {"measurement": "MIC", "setting": "[2]; Aspergillus fumigatus", "result": "> 100", "unit": "µM"}, {"measurement": "MIC", "setting": "[3]; Candida albicans, 24 h", "result": "66 ± 6", "unit": "µM"}, {"measurement": "CMI or CI80 Candida albicans (CA980001)", "setting": "[3]; listed as 46", "result": "26 ± 2", "unit": "µg/mL"}]}, {"molecule": "CCn1ccc2cccc(C(c3ccc(F)cc3)n3ccnc3)c21", "note": "(stereo not shown) [compound 57]", "values": [{"measurement": "CI50 Leishmania mexicana Promastigotes", "setting": "[1]; promastigotes", "result": "0.80 ± 1.3", "unit": "µg/mL"}, {"measurement": "IC50", "setting": "[1]; promastigotes", "result": "2.49 ± 1.3", "unit": "µM"}, {"measurement": "CMI or CI80 Aspergillus fumigatus (AF980003)", "setting": "[2]", "result": "20 ± 5 μM and 6 ± 2 μg/mL"}, {"measurement": "activity against Aspergillus fumigatus (in words)", "setting": "[2]", "result": "most active"}, {"measurement": "CMI or CI80 Candida albicans (CA980001)", "setting": "[3]", "result": "0.67 ± 0.02 μM and 0.21 ± 0.01 μg/mL"}, {"measurement": "activity of inhibition of Candida albicans (in words)", "setting": "[3]", "result": "most active"}]}]}
